These are literature values, as cited in patent US20250177316A1, “Delayed-Release Granulates of Melatonin, Combinations Comprising Melatonin, Pharmaceutical Compositions and Dietary Supplements Containing Them, and Their Use in the Treatment of Insomnia and for the Reduction of the Time Required to Fall Asleep” (S.I.I.T. S.R.L. - SERVIZIO INTERNAZIONALE IMBALLAGGI …, priority 2022, published 2025).

In the case of `CC(O)C(=O)[O-].CC(O)C(=O)[O-].[Mg+2]` (centres unmarked) [magnesium lactate], the “pH of 5% solution in water” value is 6.5-8.5.
Regarding `CC(O)C(=O)[O-].CC(O)C(=O)[O-].[Ca+2]` (centres unmarked) [calcium lactate], the “pH of 5% solution in water” value is 6-8.
